In EP1157997A1, “NOVEL DIPEPTIDE COMPOUND AND MEDICINAL USE THEREOF” (JAPAN ENERGY CORPORATION, priority 1999, dated 2001):

Assays:
in vitro = in vitro ADME; conditions: human, plasma
Protocol: Freezed human plasma (HFFPP100) was used after thawing. Powder of human alpha 1-acid glycoprotein (supplied by SIGMA Co., hereinafter abbreviated to AAG) was dissolved in a phosphate buffer solution (PBS, pH 7.0) to a concentration of 1 mg/ml. Drug solutions were prepared by dissolving the compounds synthesized in Example 1 and Reference Example 1 in dimethylsulfoxide in various concentrations.
The drug solutions (10 µl, each) with different concentrations were added to 990 µl the plasma or AAG solutions prepared above, stirred well and incubated for 18 hours at 37°C to equilibrate binding proteins. All amount of the solution was transferred to Micropartition Devices (Centrifree® , Millipore Co.) and filtered by centrifugation at 1500 x g for 20 minutes (using TOMY CX-210 high-speed cooling centrifugal machine). 200 µl of the filtrate was directly subjected to HPLC (Type: HITACHI D-7000, column: COSMOSIL (4.6* 250 mm, manufactured by Nacalai Tesque Co., Ltd.). The HPLC analysis was carried out by using a 59:41 (v/v) water-acetonitrile mixture containing 0.1% trifluoroacetic acid (TFA) as a mobile phase and measuring absorbance at 210 nm. The quantitative determination of unbound drug concentration was carried out based on the absolute calibration curve method using a calibration line obtained from the analysis of a standard sample which contains the drug at a known concentration. […]

[1] = system: HIV virus (HIV-1 IIIB strain); assay: Anti-HIV activity, cytopathic effect in CEM-SS cells by XTT dyeing, in the presence of 50% human blood serum; format: cell-based; conditions: Human immunodeficiency virus 1, IIIB, in the presence of 50% human blood serums, read-out: IC50 value in an anti-virus test
Protocol: The anti-HIV activity of the compounds synthesized Examples 1-15 and Reference Examples 1-4 was measured according to the method reported by O. S. Weislow et al. (J. Natl. Cancer Inst. 81, 577-586, 1989) using CEM-SS cells as host cells and HIV virus (HIV-1 IIIB strain) (see T. Mimoto et al., J. Med. Chem., 42, 1789-1802, 1999, etc.).
Specifically, the compounds synthesized Examples 1-15 and Reference Examples 1-5 in various concentrations were added to a culture medium on 96-well microtiter plates. Human blood serum was added to a final concentration of 50%, then HIV infected CEM-SS cells was added, followed by incubation in a CO2 atmosphere at 37°C for 6 days. The cytopathic effect induced by HIV-1 IIIB was measured by tetrazolium dye XTT dyeing method to evaluate the 50% inhibitory concentration (IC50).

Row | SMILES | fraction unbound at 18 h, 1 µM (in vitro) | IC50 [1]
1 | Cc1ccccc1CNC(=O)[C@H]1N(C(=O)[C@@H](O)[C@H](Cc2ccccc2)NC(=O)c2cccc(O)c2C)CSC1(C)C [Reference Example 1, reference compound] | 0.013 | 
2 | COc1ccc(C[C@H](NC(=O)c2cccc(O)c2C)[C@H](O)C(=O)N2CSC(C)(C)[C@H]2C(=O)NCc2ccccc2C)cc1 [Example 1, (R)-N-(2-methylbenzyl)-3-[(2S,3S)-2-hydroxy-3-(3-hydroxy-2-methylbenzoyl)amino-4-(4-methoxyphenyl)butanoyl]-5,5-dimethyl-1,3-thiazolidine-4-carboxamide] | 0.029 | 6 ng/mL
